Measurements published in patent US8614202B2, “2α-methyl and 2β-methyl analogs of 19,26,27-trinor-(20S)-1α-hydroxyvitamin D3 and their uses” (Wisconsin Alumni Research Foundation, priority 2004, dated 2013).

Legend:
[1] = Bone calcium mobilization (serum calcium) in vitamin D-deficient rats; format: in vivo, Sprague-Dawley rats
Description: Male, weanling Sprague-Dawley rats were placed on Diet 11 (0.47% Ca) diet+AEK for one week followed by Diet 11 (0.02% Ca)+AEK for 3 weeks. The rats were then switched to a diet containing 0.47% Ca for one week followed by two weeks on a diet containing 0.02% Ca. Dose administration began during the last week on 0.02% calcium diet. Four consecutive ip doses were given approximately 24 hours apart. Twenty-four hours after the last dose, blood was collected from the severed neck and the concentration of serum calcium determined as a measure of bone calcium mobilization. The first 10 cm of the intestine was also collected for intestinal calcium transport analysis using the everted gut sac method.
Calcium mobilization from bone in vitamin D-deficient animals.

[2] = system: Human promyelocytic leukemia (HL60) cells; test: HL-60 differentiation (nitro blue tetrazolium reduction); format: cell-based; settings: four days after treatment
Description: The study drugs were dissolved in ethanol and the concentrations determined using UV spectrophotometry. Serial dilutions were prepared so that a range of drug concentrations could be tested without changing the final concentration of ethanol (≦0.2%) present in the cell cultures.
Human promyelocytic leukemia (HL60) cells were grown in RPMI-1640 medium containing 10% fetal bovine serum. The cells were incubated at 37° C. in the presence of 5% CO2.
HL60 cells were plated at 1.2×10^5 cells/ml. Eighteen hours after plating, cells in duplicate were treated with drug. Four days later, the cells were harvested and a nitro blue tetrazolium reduction assay was performed (Collins et al., 1979; J. Exp. Med. 149:969-974). The percentage of differentiated cells was determined by counting a total of 200 cells and recording the number that contained intracellular black-blue formazan deposits. Verification of differentiation to monocytic cells was determined by measuring phagocytic activity (data not shown).

[3] = biological target: T1, full-length recombinant rat vitamin D receptor (Rattus norvegicus, UniProt P13053); test: Vitamin D receptor binding, competition with [3H]-1,25(OH)2D3; settings: full-length recombinant rat VDR; 1 nM radioligand
T1 construct: Full-length recombinant rat receptor was expressed in E. coli BL21 (DE3) Codon Plus RIL cells; histidine tag (C); made in house; host or cells: E. coli BL21 (DE3) Codon Plus RIL
T1 sequence (P13053 1-423): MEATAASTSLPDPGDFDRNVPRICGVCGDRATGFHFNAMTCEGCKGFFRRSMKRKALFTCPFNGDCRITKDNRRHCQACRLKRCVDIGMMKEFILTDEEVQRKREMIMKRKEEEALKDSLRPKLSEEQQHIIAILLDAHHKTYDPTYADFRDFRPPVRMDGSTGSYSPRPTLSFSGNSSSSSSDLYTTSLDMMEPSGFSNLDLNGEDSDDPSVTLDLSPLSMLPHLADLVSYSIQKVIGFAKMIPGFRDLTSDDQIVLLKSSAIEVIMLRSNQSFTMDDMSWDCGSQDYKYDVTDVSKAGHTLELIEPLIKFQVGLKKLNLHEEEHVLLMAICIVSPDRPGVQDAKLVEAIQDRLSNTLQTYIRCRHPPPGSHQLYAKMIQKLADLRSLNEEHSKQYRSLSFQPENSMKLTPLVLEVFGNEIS
Source text: Vitamin D Receptor Binding
Full-length recombinant rat receptor was expressed in E. coli BL21 (DE3) Codon Plus RIL cells and purified to homogeneity using two different column chromatography systems. The first system was a nickel affinity resin that utilizes the C-terminal histidine tag on this protein. The protein that was eluted from this resin was further purified using ion exchange chromatography (S-Sepharose Fast Flow). Aliquots of the purified protein were quick frozen in liquid nitrogen and stored at −80° C. until use. For use in binding assays, the protein was diluted in TEDK50 (50 mM Tris, 1.5 mM EDTA, pH7.4, 5 mM DTT, 150 mM KCl) with 0.1% Chaps detergent. The receptor protein and ligand concentration were optimized such that no more than 20% of the added radiolabeled ligand was bound to the receptor.
Radiolabeled and unlabeled ligands were added to 100 mcl of the diluted protein at a final ethanol concentration of ≦10%, mixed and incubated overnight on ice to reach binding equilibrium. The following day, 100 mcl of hydroxylapatite slurry (50%) was added to each tube and mixed at 10-minute intervals for 30 minutes. The hydroxylapaptite was collected by centrifugation and then washed three times with Tris-EDTA buffer (50 mM Tris, 1.5 mM EDTA, pH 7.4) containing 0.5% Titron X-100. […] Total binding was determined from the tubes containing only radiolabeled ligand.

[4] = system: 24-hydroxylase (24Ohase) gene promoter in ROS 17/2.8 (bone) cells; test: In vitro transcription assay (24-hydroxylase promoter luciferase reporter); format: cell-based; settings: ROS 17/2.8 cells, 24Ohase-luciferase, sixteen hours after dosing; read-out: EC50, transcriptional activity in bone cells
Description: In Vitro Transcription Assay
Transcription activity was measured in ROS 17/2.8 (bone) cells that were stably transfected with a 24-hydroxylase (24Ohase) gene promoter upstream of a luciferase reporter gene (Arbour et al., 1998). Cells were given a range of doses. Sixteen hours after dosing the cells were harvested and luciferase activities were measured using a luminometer. • RLU=relative luciferase units. Intestinal Calcium Transport and Bone Calcium Mobilization

[5] = low calcium diet (0.02%), four consecutive ip doses, overall / all dosages

Row | EC50 [2] | Ki [3] | EC50 [4] | SMILES | calcium mobilization from bone (serum calcium) ([1]; 0.02% Ca diet, 780 pmol/day for 4 consecutive days) | calcium mobilization from bone (serum calcium) ([1]; 0.02% Ca diet, 2340 pmol/day) | calcium mobilization from bone (serum calcium) ([1]; 0.02% Ca diet, 7020 pmol/day) | calcium mobilization from bone (serum calcium) [1, 5]
1 | 8.2 nM | 0.22 nM | 10 nM | CCCCC(C)C1CCC2C(=CC=C3CC(O)C(C)C(O)C3)CCCC21C (single isomer, unassigned) [C-19] | did not result in mobilization of bone calcium | without any substantial effect | without any substantial effect | little, if any, activity in mobilizing calcium from bone
2 | 100 nM | 10 nM | 100 nM | CCCCC(C)C1CCC2C(=CC=C3CC(O)C(C)C(O)C3)CCCC21C (single isomer, unassigned) [N-16] |  |  |  | 

Row | SMILES | EC50 [2] | Ki [3] | EC50 [4] | calcium mobilization from bone (serum calcium) ([1]; 0.02% Ca diet, 780 pmol/day for 4 consecutive days) | calcium mobilization from bone (serum calcium) ([1]; 0.02% Ca diet, 2340 pmol/day) | calcium mobilization from bone (serum calcium) ([1]; 0.02% Ca diet, 7020 pmol/day) | calcium mobilization from bone (serum calcium) [1, 5]
3 | C=C1/C(=C\C=C2/CCC[C@]3(C)[C@@H]([C@H](C)CCCC(C)(C)O)CC[C@@H]23)C[C@@H](O)C[C@@H]1O [1,25(OH)2D3, 1α,25-dihydroxyvitamin D3, reference compound] | 2.9 nM |  |  |  |  |  | increased serum calcium levels at all dosages
